Results from patent US10219516B2, “Molecules having pesticidal utility, and intermediates, compositions, and processes, related thereto” (priority 2015, dated 2019).
Like-named read-outs stand apart in the source and are kept apart here.

Legend:
Type in all cases: in vivo
[1] = system: Beet Armyworm (Spodoptera exigua, LAPHEG); assay: Bioassay on Beet Armyworm (BAW), 128-well diet tray assay
In short: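 Second instar larvae were exposed to diet treated at 50 μg/cm^2 for five to seven days at 25° C.; mortality was averaged over eight wells.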

[2] = system: Cabbage Looper (Trichoplusia ni, TRIPNI); assay: Bioassay on Cabbage Looper (CL), 128-well diet tray assay; conditions: Trichoplusia ni
In short: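 Mortality of second instar larvae exposed to diet coated with 50 μg/cm^2 compound (acetone-water 90:10 vehicle, dried); 25° C., 5–7 days.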

[3] = system: Yellow Fever Mosquito (Aedes aegypti, AEDSAE); assay: Bioassay on Yellow Fever Mosquito (YFM), 96-well plate larval assay; conditions: for YFM rating: Yellow Fever Mosquito, 96-well plate larval assay; for YFM (Biological Results, rating): Species YFM (Yellow Fever Mosquito)
In short: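 Each well was scored for mortality after 3 days at room temperature under a non-evaporative lid. Test molecules came from DMSO masters (4000 ppm stock) diluted with water/acetone 90:10 and dispensed into six replicate plates, which were then infested with roughly 1-day-old larvae in liver-powder water.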

[4] = Beet Armyworm, 128-well diet tray assay, read-out: BAW rating
[5] = Cabbage Looper, 128-well diet tray assay, read-out: CL rating
[6] = Species BAW (Beet Armyworm), read-out: BAW (Biological Results, rating)
[7] = Species CL (Cabbage Looper), read-out: CL (Biological Results, rating)

| Compound | pest or weed control at 50 µg/cm2 [1, 4] [%] | pest or weed control at 50 µg/cm2 [2, 5] [%] | YFM rating [3] | pest or weed control at 50 µg/cm2 [1, 6] [%] | pest or weed control at 50 µg/cm2 [2, 7] [%] | YFM (Biological Results, rating) [3] |
| --- | --- | --- | --- | --- | --- | --- |
| COc1cc(NC(=O)c2cc(NC(=O)[C@H]3[C@H](c4cc(Cl)cc(Cl)c4)C3(Cl)Cl)ccc2Cl)ccc1F (relative stereo) [PF52, trans-2-Chloro-5-(2,2-dichloro-3-(3,5-dichlorophenyl)cyclopropane-1-carboxamido)-N-(4-fluoro-3-methoxyphenyl)benzamide] | 50 to 100 | 50 to 100 | A (80-100) | – | – | – |
| O=C(Nc1ccc(F)cc1F)c1cc(NC(=O)[C@H]2[C@H](c3ccc(C(F)(F)F)c(F)c3)C2(Cl)Cl)ccc1Cl (relative stereo) [F347, 2-Chloro-5-(trans)-(2,2-dichloro-3-(3-fluoro-4-(trifluoromethyl)phenyl)cyclopropane-1-carboxamido)-N-(2,4-difluorophenyl)benzamide] | – | – | – | 50 to 100 | 50 to 100 | A (80-100) |
| C=Cc1cc([C@H]2[C@H](C(=O)Nc3ccc(Cl)c(C(=O)Nc4ccc(F)cc4F)c3)C2(Cl)Cl)ccc1Cl (relative stereo) [F351, 2-Chloro-5-(trans-2,2-dichloro-3-(4-chloro-3-vinylphenyl)cyclopropane-1-carboxamido)-N-(2,4-difluorophenyl)benzamide] | – | – | – | 50 to 100 | 50 to 100 | A (80-100) |
| COc1ccc(NC(=O)c2cc(NC(=O)[C@H]3[C@H](c4ccc(F)c(Cl)c4)C3(Cl)Cl)ccc2Cl)c(Cl)n1 (relative stereo) [F553, 2-Chloro-N-(2-chloro-6-methoxypyridin-3-yl)-5-(trans-2,2-dichloro-3-(3-chloro-4-fluorophenyl)cyclopropane-1-carboxamido)benzamide] | 50 to 100 | 50 to 100 | A (80-100) | – | – | – |
| O=C(Nc1ccc(F)cc1)c1cc(NC(=O)[C@H]2[C@H](c3cc(Cl)cc(Cl)c3)C2(Br)Br)ccc1Cl (relative stereo) [F122, trans-2-Chloro-5-(2,2-dibromo-3-(3,5-dichlorophenyl)cyclopropane-1-carboxamido)-N-(4-fluorophenyl)benzamide] | – | – | – | 50 to 100 | 50 to 100 | B (More than 0-Less than 80) |
| O=C(Nc1ncc(F)cc1F)c1cc(NC(=O)[C@H]2[C@H](c3cc(F)cc(C(F)F)c3)C2(Cl)Cl)ccc1Cl (relative stereo) [F586, 2-Chloro-5-(trans-2,2-dichloro-3-(3-(difluoromethyl)-5-fluorophenyl)cyclopropane-1-carboxamido)-N-(3,5-difluoropyridin-2-yl)benzamide] | 50 to 100 | 50 to 100 | A (80-100) | – | – | – |
| Cc1cc(F)cnc1NC(=O)c1cc(NC(=O)[C@H]2[C@H](c3cc(Cl)cc(Cl)c3)C2(Cl)Cl)ccc1Cl (relative stereo) [F242, trans-2-Chloro-5-(2,2-dichloro-3-(3,5-dichlorophenyl)cyclopropane-1-carboxamido)-N-(5-fluoro-3-methylpyridin-2-yl)benzamide] | – | – | – | 50 to 100 | 50 to 100 | A (80-100) |
| COc1c(F)cc([C@H]2[C@H](C(=O)Nc3ccc(Cl)c(C(=O)Nc4ccc(F)cc4F)c3)C2(Cl)Cl)cc1Br (relative stereo) [F543, 5-(trans-3-(3-Bromo-5-fluoro-4-methoxyphenyl)-2,2-dichlorocyclopropane-1-carboxamido)-2-chloro-N-(2,4-difluorophenyl)benzamide] | 50 to 100 | 50 to 100 | A (80-100) | – | – | – |
| C#Cc1ccc(NC(=O)c2cc(NC(=O)[C@H]3[C@H](c4cc(Cl)cc(Cl)c4)C3(Cl)Cl)ccc2Cl)cc1 (relative stereo) [PF15, trans-2-Chloro-5-(2,2-dichloro-3-(3,5-dichlorophenyl)cyclopropane-1-carboxamido)-N-(4-ethynylphenyl)benzamide] | 50 to 100 | 50 to 100 | B (More than 0-Less than 80) | – | – | – |
| CNc1ccc(NC(=O)c2cc(NC(=O)[C@H]3[C@H](c4ccc(F)c(Cl)c4)C3(Cl)Cl)ccc2Cl)c(C)c1 (relative stereo) [F224, trans-2-Chloro-5-(2,2-dichloro-3-(3-chloro-4-fluorophenyl)cyclopropane-1-carboxamido)-N-(2-methyl-4-(methylamino)phenyl)benzamide] | – | – | – | 50 to 100 | 50 to 100 | A (80-100) |
| CN(C(=O)c1cccc(NC(=O)[C@H]2[C@H](c3cc(Cl)cc(Cl)c3)C2(Cl)Cl)c1F)c1ccccc1 (relative stereo) [F69, trans-3-(2,2-Dichloro-3-(3,5-dichlorophenyl)cyclopropane-1-carboxamido)-2-fluoro-N-methyl-N-phenylbenzamide] | – | – | – | 50 to 100 | 50 to 100 | B (More than 0-Less than 80) |
| Cc1cc(F)ccc1N(C)C(=O)c1cc(NC(=O)[C@H]2[C@H](c3ccc(F)c(Cl)c3)C2(Cl)Cl)ccc1Cl (relative stereo) [PF50, trans-2-Chloro-5-(2,2-dichloro-3-(3-chloro-4-fluorophenyl)cyclopropane-1-carboxamido)-N-(4-fluoro-2-methylphenyl)-N-methylbenzamide] | 50 to 100 | 50 to 100 | A (80-100) | – | – | – |
| C=Cc1cc([C@H]2[C@H](C(=O)Nc3ccc(Cl)c(C(=O)Nc4ccc(F)cc4F)c3)C2(Cl)Cl)ccc1F (relative stereo) [F390, 2-Chloro-5-(trans-2,2-dichloro-3-(4-fluoro-3-vinylphenyl)cyclopropane-1-carboxamido)-N-(2,4-difluorophenyl)benzamide] | 50 to 100 | 50 to 100 | A (80-100) | – | – | – |
| O=C(Nc1ccc(SCC(F)(F)F)cc1)c1cc(NC(=O)[C@H]2[C@H](c3cc(Cl)cc(Cl)c3)C2(Cl)Cl)ccc1Cl (relative stereo) [PF10, trans-2-Chloro-5-(2,2-dichloro-3-(3,5-dichlorophenyl)cyclopropane-1-carboxamido)-N-(4-((2,2,2-trifluoroethyl)thio)phenyl)benzamide] | 50 to 100 | 50 to 100 | B (More than 0-Less than 80) | – | – | – |
| CCc1ccc(NC(=O)[C@H]2[C@H](c3cc(Cl)cc(Cl)c3)C2(Cl)Cl)cc1C(=O)Nc1ccc(F)cc1 (relative stereo) [PF8, trans-5-(2,2-Dichloro-3-(3,5-dichlorophenyl)cyclopropanecarboxamido)-2-ethyl-N-(4-fluorophenyl)benzamide] | 50 to 100 | 50 to 100 | A (80-100) | – | – | – |
| Nc1cc(F)cc(F)c1NC(=O)c1cc(NC(=O)[C@H]2[C@H](c3ccc(Cl)c(Cl)c3)C2(Cl)Cl)ccc1Cl [F407, N-(2-amino-4,6-difluorophenyl)-2-chloro-5-((1R,3R)-2,2-dichloro-3-(3,4-dichlorophenyl)cyclopropane-1-carboxamido)benzamide] | 50 to 100 | 50 to 100 | A (80-100) | – | – | – |
